The assay concerns the target human JAK1 (a.a. 837-1142). In words: In vitro JAK kinase assay (HTRF, phosphorylation of a biotinylated peptide), JAK1. Type of assay: biochemical. The conditions noted are these: measured at 1 mM ATP; JAK2 IC50 / JAK1 IC50. The protocol:
Compounds herein were tested for inhibitory activity of JAK targets according to the following in vitro assay described in Park et al., Analytical Biochemistry 1999, 269, 94-104. The catalytic domains of human JAK1 (a.a. 837-1142), Jak2 (a.a. 828-1132) and Jak3 (a.a. 781-1124) with an N-terminal His tag were expressed using baculovirus in insect cells and purified. The catalytic activity of JAK1, JAK2 or JAK3 was assayed by measuring the phosphorylation of a biotinylated peptide. The phosphorylated peptide was detected by homogenous time resolved fluorescence (HTRF). […] Reactions were carried out at room temperature for 1 hr and then stopped with 20 μL 45 mM EDTA, 300 nM SA-APC, 6 nM Eu-Py20 in assay buffer (Perkin Elmer, Boston, Mass.). Binding to the Europium labeled antibody took place for 40 minutes and HTRF signal was measured on a Fusion plate reader (Perkin Elmer, Boston, Mass.).
With `CC1CC(N2CC(CC#N)(n3cc(-c4ncnc5[nH]ccc45)cn3)C2)CCN1Cc1c(F)cccc1Cl` (single isomer, unassigned) [Example 244, {1-[1-(2-chloro-6-fluorobenzyl)-2-methylpiperidin-4-yl]-3-[4-(7H-pyrrolo[2,3-d]pyrimidin-4-yl)-1H-pyrazol-1-yl]azetidin-3-yl}acetonitrile], the “IC50 Ratio JAK2/JAK1” value is 1.8.

In the case of `N#CCC1(n2cc(-c3ncnc4[nH]ccc34)cn2)CN(C2CCN(C(=O)c3cc(F)cc(F)c3)CC2)C1` [Example 3, {1-[1-(3,5-difluorobenzoyl)piperidin-4-yl]-3-[4-(7H-pyrrolo[2,3-d]pyrimidin-4-yl)-1H-pyrazol-1-yl]azetidin-3-yl}acetonitrile], the “IC50 Ratio JAK2/JAK1” value amounted to 11.0.

Consider `COc1ccc(C(=O)N2CCC(N3CC(CC#N)(n4cc(-c5ncnc6[nH]ccc56)cn4)C3)CC2)cc1F` [Example 5, {1-[1-(3-fluoro-4-methoxybenzoyl)piperidin-4-yl]-3-[4-(7H-pyrrolo[2,3-d]pyrimidin-4-yl)-1H-pyrazol-1-yl]azetidin-3-yl}acetonitrile], for which the “IC50 Ratio JAK2/JAK1” value stood at 12.0.

In the case of `N#CCC1(n2cc(-c3ncnc4[nH]ccc34)cn2)CN(C2CCN(C(=O)C3CCCCC3)CC2)C1` [Example 8, {1-[1-(cyclohexylcarbonyl)piperidin-4-yl]-3-[4-(7H-pyrrolo[2,3-d]pyrimidin-4-yl)-1H-pyrazol-1-yl]azetidin-3-yl}acetonitrile], the “IC50 Ratio JAK2/JAK1” value worked out at 11.0.

`N#CCC1(n2cc(-c3ncnc4[nH]ccc34)cn2)CN(C2CCN(C(=O)c3ccccc3)CC2)C1` [Example 9, {1-(1-benzoylpiperidin-4-yl)-3-[4-(7H-pyrrolo[2,3-d]pyrimidin-4-yl)-1H-pyrazol-1-yl]azetidin-3-yl}acetonitrile]: the “IC50 Ratio JAK2/JAK1” value was determined as 3.2.

`N#CCC1(n2cc(-c3ncnc4[nH]ccc34)cn2)CN(C2CCN(C(=O)c3ccccc3C#N)CC2)C1` [Example 10, 2-[(4-{3-(cyanomethyl)-3-[4-(7H-pyrrolo[2,3-d]pyrimidin-4-yl)-1H-pyrazol-1-yl]azetidin-1-yl}piperidin-1-yl)carbonyl]benzonitrile]: the “IC50 Ratio JAK2/JAK1” value worked out at 4.4.

As for `N#CCC1(n2cc(-c3ncnc4[nH]ccc34)cn2)CN(C2CCN(C(=O)c3cccc(C#N)c3)CC2)C1` [Example 11, 3-[(4-{3-(cyanomethyl)-3-[4-(7H-pyrrolo[2,3-d]pyrimidin-4-yl)-1H-pyrazol-1-yl]azetidin-1-yl}piperidin-1-yl)carbonyl]benzonitrile], the “IC50 Ratio JAK2/JAK1” value was 7.2.

As for `N#CCC1(n2cc(-c3ncnc4[nH]ccc34)cn2)CN(C2CCN(C(=O)c3ccc(C#N)cc3)CC2)C1` [Example 12, 4-[(4-{3-(cyanomethyl)-3-[4-(7H-pyrrolo[2,3-d]pyrimidin-4-yl)-1H-pyrazol-1-yl]azetidin-1-yl}piperidin-1-yl)carbonyl]benzonitrile], the “IC50 Ratio JAK2/JAK1” value is recorded as 5.2.

With `N#CCC1(n2cc(-c3ncnc4[nH]ccc34)cn2)CN(C2CCN(C(=O)c3cccc(Cl)n3)CC2)C1` [Example 13, {1-{1-[(6-chloropyridin-2-yl)carbonyl]piperidin-4-yl}-3-[4-(7H-pyrrolo[2,3-d]pyrimidin-4-yl)-1H-pyrazol-1-yl]azetidin-3-yl}acetonitrile], the “IC50 Ratio JAK2/JAK1” value was found to be 5.3.

Regarding `N#CCC1(n2cc(-c3ncnc4[nH]ccc34)cn2)CN(C2CCN(C(=O)c3cnccn3)CC2)C1` [Example 14, {1-[1-(pyrazin-2-lcarbonyl)piperidin-4-yl]-3-[4-(7H-pyrrolo[2,3-d]pyrimidin-4-yl)-1H-pyrazol-1-yl]azetidin-3-l}acetonitrile], the “IC50 Ratio JAK2/JAK1” value is 3.2.

Regarding `N#CCC1(n2cc(-c3ncnc4[nH]ccc34)cn2)CN(C2CCN(C(=O)c3ccsc3)CC2)C1` [Example 15, {3-[4-(7H-pyrrolo[2,3-d]pyrimidin-4-yl)-1H-pyrazol-1-yl]-1-[1-(3-thienylcarbonyl)piperidin-4-yl]azetidin-3-yl}acetonitrile], the “IC50 Ratio JAK2/JAK1” value is listed as 5.3.

Source of the values: patent US10695337B2, “Piperidin-4-yl azetidine derivatives as JAK1 inhibitors” (Incyte Corporation, priority 2010, dated 2020).
